The term IC50 denotes the concentration that inhibits the measured activity by half.

This note sets out measurements from ChEMBL document CHEMBL5505985 (Eur J Med Chem, 2024).

The test system of data set [1] is Mus musculus. As to the kind of experiment: Antiinflammatory activity against DSS-induced ulcerative colitis BALB/c mouse assessed as attenuation of colonic length reduction at 0.25 mg/kg, po for 5 days and measured after 12 days. In kind it is functional, organism-based. Particulars: time 12.0 day.
The subject of data set [2] is RAW264.7. As to the kind of experiment: Antiinflammatory activity in LPS-induced mouse RAW264.7 cells assessed as suppression of PGE2 secretion at 2 to 30 uM preincubated for 1 hr followed by LPS stimulation and measured after 24 hrs by ELISA method. The format is functional, cell-based. To be noted: dose 2-30 µM, time 25.0 hrs.
Data set [3] has as its system RAW264.7. As to the kind of experiment: Antiinflammatory activity in LPS-induced mouse RAW264.7 cells assessed as downregulation of IL-6 secretion preincubated for 1 hr followed by LPS stimulation and measured after 24 hrs by ELISA method. In kind it is functional, cell-based. Particulars: dose 2-30 µM, time 25.0 hrs.
Data set [4] concerns RAW264.7. Kind of data set: Antiinflammatory activity in LPS-induced mouse RAW264.7 cells assessed as downregulation of TNF-alpha secretion preincubated for 1 hr followed by LPS stimulation and measured after 3 hrs by ELISA method. In kind it is functional, cell-based. Particulars: dose 2-30 µM, time 4.0 hrs. (In general: ELISA stands for enzyme-linked immunosorbent assay.)

Data set [5] relates to Mus musculus. As to the kind of experiment: Antiinflammatory activity against DSS-induced ulcerative colitis BALB/c mouse assessed as amelioration of crypt architecture loss at 0.25 mg/kg, po for 5 days and measured after 12 days. The format is functional, organism-based. To be noted: time 12.0 day.
Data set [6] has as its system RAW264.7. Kind of data set: Antiinflammatory activity in LPS-induced mouse RAW264.7 cells assessed as reduction in iNOS protien level at 10 uM preincubated for 1 hr followed by LPS stimulation and measured after 24 hrs […]. The format is functional, cell-based. Particulars: time 25.0 hrs. In general terms: The Griess reaction detects nitrite, a stable product of nitric oxide.

Data set [7] deals with NACHT, LRR and PYD domains-containing protein 3 (Mus musculus) (UniProt Q8R4B8). As to the kind of experiment: Inhibition of NLRP3 inflammasome in LPS-induced mouse RAW264.7 cells assessed as reduction in NLRP3 activation at 10 to 30 uM primed with LPS for 4.5 hs followed by incubation with compound for 1 hr and later stimulation with ATP for 30 mins by Western blot analysis. Particulars: dose 10-30 µM, time 1.5 hrs. The format is cell-based. (In western blotting, separated proteins are transferred to a membrane and probed.)

Data set [8] deals with Mus musculus. Kind of data set: Antiinflammatory activity against DSS-induced ulcerative colitis BALB/c mouse assessed as amelioration of atrophied blood sinusoids at 0.25 mg/kg, po for 5 days and measured after 12 days. The format is functional, organism-based. Particulars: time 12.0 day.
Data set [9] deals with T1, Prostaglandin G/H synthase 1 (Ovis aries, UniProt P05979).
T1 sequence (P05979 whole entry): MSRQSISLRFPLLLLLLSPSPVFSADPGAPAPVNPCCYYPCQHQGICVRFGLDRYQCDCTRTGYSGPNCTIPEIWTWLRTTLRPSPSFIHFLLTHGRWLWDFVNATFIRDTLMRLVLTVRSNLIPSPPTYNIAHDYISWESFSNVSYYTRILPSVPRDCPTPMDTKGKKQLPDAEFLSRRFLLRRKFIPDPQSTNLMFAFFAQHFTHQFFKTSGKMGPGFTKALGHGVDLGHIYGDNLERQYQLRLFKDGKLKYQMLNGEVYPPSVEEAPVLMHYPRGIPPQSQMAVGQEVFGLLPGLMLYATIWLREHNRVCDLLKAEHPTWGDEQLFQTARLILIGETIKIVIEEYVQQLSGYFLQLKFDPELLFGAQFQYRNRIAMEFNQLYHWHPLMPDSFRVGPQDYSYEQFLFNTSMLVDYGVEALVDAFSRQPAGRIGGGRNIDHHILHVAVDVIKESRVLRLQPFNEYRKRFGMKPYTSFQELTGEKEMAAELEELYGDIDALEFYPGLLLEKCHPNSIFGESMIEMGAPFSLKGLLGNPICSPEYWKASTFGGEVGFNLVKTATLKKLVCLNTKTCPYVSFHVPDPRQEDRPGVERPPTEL
As to the kind of experiment: Inhibition of sheep COX-1 using arachidonic acid as substrate pretreated for 5 mins followed by substrate addition and measured after 2 mins by fluorescence based analysis.

For data set [10], the system named is RAW264.7. Kind of data set: Antiinflammatory activity in LPS-induced mouse RAW264.7 cells assessed as inhibition of ROS secretion preincubated for 1 hr followed by LPS stimulation and measured after 24 hrs by fluorescence based analysis. In kind it is functional, cell-based. To be noted: dose 2-30 µM, time 25.0 hrs.
In data set [11] the test system is RAW264.7. Kind of data set: Cytotoxicity activity mouse RAW264.7 cells assessed as reduction in cell viability at 10 uM incubated for 48 hrs by MTT assay. Particulars: raw264.7, 48 h. The format is toxicity, cell-based.
The target of data set [12] is NACHT, LRR and PYD domains-containing protein 3 (Mus musculus) (UniProt Q8R4B8). As to the kind of experiment: Inhibition of NLRP3 inflammasome in LPS-induced mouse RAW264.7 cells assessed as downregulation of caspase-1 activation primed with LPS for 4.5 hs followed by incubation with compound for 1 hr and later stimulation with ATP for 30 mins by Western blot analysis. Particulars: dose 10-30 µM, time 1.5 hrs. In kind it is cell-based.

Data set [13] concerns Mus musculus. As to the kind of experiment: Antiinflammatory activity against DSS-induced ulcerative colitis BALB/c mouse assessed as suppression of weight loss at 0.25 mg/kg, po for 5 days and measured on day 10. In kind it is functional, organism-based. Particulars: time 10.0 day.
The subject of data set [14] is Mus musculus. As to the kind of experiment: Protection against DSS-induced ulcerative colitis BALB/c mouse assessed as recovery of cell matrix development at 0.25 mg/kg, po for 5 days and measured after 12 days by H and E staining based analysis. In kind it is functional, organism-based. To be noted: time 12.0 day.
For data set [15], the system named is Mus musculus. Kind of data set: Antiinflammatory activity against DSS-induced ulcerative colitis BALB/c mouse assessed as reduction in DAI score at 0.25 mg/kg, po for 5 days and measured after 12 days. The format is functional, organism-based. To be noted: time 12.0 day.
The subject of data set [16] is RAW264.7. Kind of data set: Inhibition of MAPK signalling pathway in LPS induced mouse RAW264.7 cells assessed as effect on p38 phosphorylation level at 10 to 30 uM preincubated for 1 hr followed by LPS stimulation and measured after 30 mins by Westernblot analysis. In kind it is cell-based. To be noted: dose 10-30 µM, time 1.5 hrs.
Data set [17] relates to RAW264.7. As to the kind of experiment: Antiinflammatory activity in LPS-induced mouse RAW264.7 cells assessed as downregulation of IL-1 beta secretion preincubated for 1 hr followed by LPS stimulation and measured after 24 hrs by ELISA method. Particulars: dose 2-30 µM, time 25.0 hrs. The format is functional, cell-based.
Data set [18] has as its system Mus musculus. As to the kind of experiment: Antiinflammatory activity against DSS-induced ulcerative colitis BALB/c mouse assessed as amelioration of inflammatory cell infiltration at 0.25 mg/kg, po for 5 days and measured after 12 days. The format is functional, organism-based. To be noted: time 12.0 day.
For data set [19], the system named is Mus musculus. As to the kind of experiment: Protection against DSS-induced ulcerative colitis BALB/c mouse assessed as recovery of blood sinusoids at 0.25 mg/kg, po for 5 days and measured after 12 days by H and E staining based analysis. The format is functional, organism-based. Particulars: time 12.0 day.
The subject of data set [20] is RAW264.7. Kind of data set: Inhibition of LPS-induced NFkappaB activation in mouse RAW264.7 cells assessed as reduction in NF-kappaB phosphorylation level preincubated for 1 hr followed by LPS stimulation and measured after 30 mins by Westernblot analysis. In kind it is cell-based. Particulars: dose 10-30 µM, time 1.5 hrs.
For data set [21], the system named is RAW264.7. As to the kind of experiment: Inhibition of LPS-induced NFkappaB activation in mouse RAW264.7 cells assessed as inhibition of IkappaBalpha phosphorylation level preincubated for 1 hr followed by LPS stimulation and measured after 30 mins by Westernblot analysis. In kind it is cell-based. To be noted: dose 10-30 µM, time 1.5 hrs.
For data set [22], the system named is Mus musculus. Kind of data set: Antiinflammatory activity against DSS-induced ulcerative colitis BALB/c mouse assessed as amelioration of leucocyte infiltration at 0.25 mg/kg, po for 5 days and measured after 12 days. The format is functional, organism-based. Particulars: time 12.0 day.
The subject of data set [23] is Mus musculus. As to the kind of experiment: Antiinflammatory activity against DSS-induced ulcerative colitis BALB/c mouse assessed as amelioration of goblet cell depletion at 0.25 mg/kg, po for 5 days and measured after 12 days. In kind it is functional, organism-based. Particulars: time 12.0 day.
The target in data set [24] is NACHT, LRR and PYD domains-containing protein 3 (Mus musculus) (UniProt Q8R4B8). Kind of data set: Inhibition of NLRP3 inflammasome in LPS-induced mouse RAW264.7 cells assessed as inhibition of ASC expression at 10 to 30 uM primed with LPS for 4.5 hs followed by incubation with compound for 1 hr and later stimulation with ATP for 30 mins by Western blot analysis. The format is cell-based. Particulars: dose 10-30 µM, time 1.5 hrs.

Activity calls are given as the source filed them. The rule behind the calls is not given here.

Sequence of NACHT, LRR and PYD domains-containing protein 3 (Mus musculus) (Q8R4B8 whole entry, the tested form may be a part): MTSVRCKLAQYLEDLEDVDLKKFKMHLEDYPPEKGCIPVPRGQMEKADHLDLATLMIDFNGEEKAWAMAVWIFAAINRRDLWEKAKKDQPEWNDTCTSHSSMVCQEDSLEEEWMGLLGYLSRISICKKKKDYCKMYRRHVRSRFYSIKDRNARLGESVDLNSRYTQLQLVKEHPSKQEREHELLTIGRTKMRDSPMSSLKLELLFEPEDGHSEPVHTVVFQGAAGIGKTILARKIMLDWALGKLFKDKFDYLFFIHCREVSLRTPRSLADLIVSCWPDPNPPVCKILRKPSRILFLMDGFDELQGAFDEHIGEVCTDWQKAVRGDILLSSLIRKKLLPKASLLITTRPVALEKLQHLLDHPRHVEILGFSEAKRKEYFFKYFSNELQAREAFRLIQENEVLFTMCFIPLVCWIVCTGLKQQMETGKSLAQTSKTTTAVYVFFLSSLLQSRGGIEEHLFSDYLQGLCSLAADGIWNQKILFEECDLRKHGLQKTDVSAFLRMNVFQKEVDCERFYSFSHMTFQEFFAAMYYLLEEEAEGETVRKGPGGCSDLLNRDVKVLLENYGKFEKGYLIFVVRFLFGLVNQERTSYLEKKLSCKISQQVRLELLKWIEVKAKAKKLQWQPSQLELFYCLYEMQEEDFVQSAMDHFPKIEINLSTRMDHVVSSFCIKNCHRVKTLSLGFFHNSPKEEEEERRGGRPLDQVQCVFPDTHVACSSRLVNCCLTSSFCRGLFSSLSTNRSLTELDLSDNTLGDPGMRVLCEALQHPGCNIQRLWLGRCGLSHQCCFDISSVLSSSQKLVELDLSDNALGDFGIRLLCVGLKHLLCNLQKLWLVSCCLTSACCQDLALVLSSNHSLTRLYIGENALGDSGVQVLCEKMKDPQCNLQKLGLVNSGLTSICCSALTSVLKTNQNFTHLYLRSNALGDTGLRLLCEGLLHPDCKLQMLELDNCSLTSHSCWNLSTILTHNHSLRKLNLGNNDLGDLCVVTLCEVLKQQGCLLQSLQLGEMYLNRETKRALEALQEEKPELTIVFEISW

Turning to `COc1ccccc1C1=Nn2c(Cc3ccccc3Nc3c(Cl)cccc3Cl)nnc2SC1`, the result in [1], in data set [2], in [5], in [6], in data set [8] and in [13] was Active. For the same compound, the result in [14], in data set [15], in data set [18], in [19], in data set [22] and in data set [23] was Active. The Activity result in [3] is “Dose-Dependent Effect”; in data set [4], “Dose-Dependent Effect”; in data set [10] it was “Dose-Dependent Effect”; in [11], “Non-Toxic”; in data set [17], “Dose-Dependent Effect”. In addition, the inhibition entry in data set [7] and in data set [24] was “Active” each time. For the same compound, the IC50 in [9] is 26.3 µM. Moreover, the inhibition entry in data set [12], in [20] and in data set [21] was “Dose-Dependent Effect” in each case. Further, in [16], the inhibition result was “inactive”.
